Patent publication US20240002391A1, “4-ALKOXYPYRROLO[2,1-F][1,2,4]TRIAZINES AND PREPARATION AND USES THEREOF” (BioSplice Therapeutics, Inc., priority 2022, published 2024)
pIC50: −log10 of the molar value.

The compounds below were run against recombinant DYRK1A kinase (Homo sapiens (Human), UniProt Q13627) (assay: DYRK1A kinase assay (Ser/Thr 18 peptide Z-lyte FRET)). Conditions: DYRK1A kinase activity, Z-lyte Ser/Thr 18 peptide, 15 μM ATP; method text calls the value IC50; read-out: EC50 (the source's name).
Type: biochemical
How it was run: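 Compounds were tested as 11-point, threefold dilution series starting at 10 μM against recombinant enzyme in a 1 h room-temperature reaction with 15 μM ATP and 4 μM peptide substrate. Phosphorylation is read by protease-coupled FRET, and IC50 values come from curve fitting.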

| pIC50 | SMILES |
| --- | --- |
| 8.80 | COc1nc(N[C@H]2CCN(C(C)=O)C[C@H]2F)nn2ccc(-c3ccc4nnn(CCF)c4c3)c12 [Compound 664, 1-((3R,4S)-3-Fluoro-4-((5-(1-(2-fluoroethyl)-1H-benzo[d][1,2,3]triazol-6-yl)-4-methoxypyrrolo[2,1-f][1,2,4]triazin-2-yl)amino)piperidin-1-yl)ethan-1-one] |
| 8.28 | COc1nc(N[C@H]2C[C@@](C)(NC(C)=O)C2)nn2ccc(-c3ccc4ncnn4c3)c12 [Compound 191, N-(cis-3-((5-([1,2,4]Triazolo[1,5-a]pyridin-6-yl)-4-methoxypyrrolo[2,1-f][1,2,4]triazin-2-yl)amino)-1-methylcyclobutyl)acetamide] |
| 8.80 | COc1nc(NC2CCN(C(C)=O)CC2)nn2ccc(-c3ccc4nc(C)n(CC(F)F)c4c3)c12 [Compound 122, 1-(4-((5-(1-(2,2-Difluoroethyl)-2-methyl-1H-benzo[d]imidazol-6-yl)-4-methoxypyrrolo[2,1-f]1[1,2,4]triazin-2-yl)amino)piperidin-1-yl)ethan-1-one] |
| 8.70 | COc1nc(N[C@H]2CC[C@@H](NC(C)=O)CC2)nn2cc(F)c(-c3ccc4ncccc4c3)c12 [Compound 1054, N-(cis-4-((6-Fluoro-4-methoxy-5-(quinolin-6-yl)pyrrolo[2,1-f][1,2,4]triazin-2-yl)amino)cyclohexyl)acetamide] |
| 8.57 | CNC(=O)c1cnn2ccc(-c3ccn4nc(N[C@H]5CC[C@](C)(O)CC5)nc(OC)c34)cc12 [Compound 401, 5-(2-(((1r,4r)-4-Hydroxy-4-methylcyclohexyl)amino)-4-methoxypyrrolo[2,1-f][1,2,4]triazin-5-yl)-N-methylpyrazolo[1,5-a]pyridine-3-carboxamide] |
| 8.92 | CNC(=O)[C@]1(C)C[C@@H](Nc2nc(OC)c3c(-c4ccc5nccnc5c4)ccn3n2)C1 [Compound 338, trans-3-((4-Methoxy-5-(quinoxalin-6-yl)pyrrolo[2,1-f][1,2,4]triazin-2-yl)amino)-N,1-dimethylcyclobutane-1-carboxamide] |
| 8.37 | COc1nc(N[C@H]2C[C@@](C)(NC(C)=O)C2)nn2ccc(-c3ccc4nnn(C)c4c3)c12 [Compound 205, N-(cis-3-((4-Methoxy-5-(1-methyl-1H-benzo[d][1,2,3]triazol-6-yl)pyrrolo[2,1-f][1,2,4]triazin-2-yl)amino)-1-methylcyclobutyl)acetamide] |
| 8.66 | COCCNC(=O)[C@]1(C)C[C@@H](Nc2nc(OC)c3c(-c4ccc5nnn(C)c5c4)ccn3n2)C1 [Compound 214, trans-3-((4-Methoxy-5-(1-methyl-1H-benzo[d][1,2,3]triazol-6-yl)pyrrolo[2,1-f][1,2,4]triazin-2-yl)amino)-N-(2-methoxyethyl)-1-methylcyclobutane-1-carboxamide] |
| 8.42 | COc1nc(NC2CCOCC2)nn2ccc(-c3cnc4nccn4c3)c12 [Compound 271, 5-(Imidazo[1,2-a]pyrimidin-6-yl)-4-methoxy-N-(tetrahydro-2H-pyran-4-yl)pyrrolo[2,1-f][1,2,4]triazin-2-amine] |
| 7.30 | COc1nc(NC2CCC3(CC2)COC3)nn2ccc(-c3ccc4nncn4c3)c12 [Compound 188, 5-([1,2,4]Triazolo[4,3-a]pyridin-6-yl)-4-methoxy-N-(2-oxaspiro[3.5]nonan-7-yl)pyrrolo[2,1-f][1,2,4]triazin-2-amine] |
| 8.54 | COc1nc(N[C@H]2C[C@](C)(C(=O)NC3CC3)C2)nn2ccc(-c3ccc4nnn(C)c4c3)c12 [Compound 218, trans-N-Cyclopropyl-3-((4-methoxy-5-(1-methyl-1H-benzo[d][1,2,3]triazol-6-yl)pyrrolo[2,1-f][1,2,4]triazin-2-yl)amino)-1-methylcyclobutane-1-carboxamide] |
| 8.92 | COc1nc(N[C@H]2CC[C@](C)(O)CC2)nn2ccc(-c3ccc4ncc(C(N)=O)n4c3)c12 [Compound 104, 6-(2-((trans-4-hydroxy-4-methylcyclohexyl)amino)-4-methoxypyrrolo[2,1-f][1,2,4]triazin-5-yl)imidazo[1,2-a]pyridine-3-carboxamide] |
| 8.47 | COc1nc(N[C@@H]2C[C@@H]3CN(C(C)=O)C[C@@H]3C2)nn2ccc(-c3ccc4nnn(C)c4c3)c12 [Compound 228, 1-((3aR,5r,6aS)-5-((4-Methoxy-5-(1-methyl-1H-benzo[d][1,2,3]triazol-6-yl)pyrrolo[2,1-f][1,2,4]triazin-2-yl)amino)hexahydrocyclopenta[c]pyrrol-2(1H)-yl)ethan-1-one] |
| 8.09 | COc1nc(N[C@H]2CCN(C)CC2(F)F)nn2ccc(-c3ccc4ncccc4c3)c12 [Compound 320, (S)—N-(3,3-Difluoro-1-methylpiperidin-4-yl)-4-methoxy-5-(quinolin-6-yl)pyrrolo[2,1-f][1,2,4]triazin-2-amine] |
| 8.16 | COc1nc(N[C@H]2CCN(C)CC2(F)F)nn2ccc(-c3ccc4nc(C)n(CC(F)F)c4c3)c12 [Compound 139, (S)—N-(3,3-Difluoro-1-methylpiperidin-4-yl)-5-(1-(2,2-difluoroethyl)-2-methyl-1H-benzo[d]imidazol-6-yl)-4-methoxypyrrolo[2,1-f][1,2,4]triazin-2-amine] |
| 9.22 | COc1nc(N[C@H]2C[C@](C)(O)C2)nn2ccc(-c3ccn4nccc4c3)c12 [Compound 8, trans-3-((4-Methoxy-5-(pyrazolo[1,5-a]pyridin-5-yl)pyrrolo[2,1-f][1,2,4]triazin-2-yl)amino)-1-methylcyclobutan-1-ol] |
| 8.59 | COc1nc(N[C@@H]2CCN(CCF)C[C@@H]2F)nn2ccc(-c3ccc4nc(C)n(CC(F)F)c4c3)c12 [Compound 129, 5-(1-(2,2-Difluoroethyl)-2-methyl-1H-benzo[d]imidazol-6-yl)-N-((3S,4R)-3-fluoro-1-(2-fluoroethyl)piperidin-4-yl)-4-methoxypyrrolo[2,1-f][1,2,4]triazin-2-amine] |
| 9.05 | COc1nc(N[C@H]2CC[C@](C)(O)CC2)nn2cc(F)c(-c3ccc4ncnn4c3)c12 [Compound 589, (1r,4r)-4-((5-([1,2,4]Triazolo[1,5-a]pyridin-6-yl)-6-fluoro-4-methoxypyrrolo-[2,1-f][1,2,4]triazin-2-yl)amino)-1-methylcyclohexan-1-ol] |
| 7.96 | COc1nc(N[C@H]2CC[C@@](C)(O)CC2)nn2ccc(-c3cc(F)c4nnn(CC(F)F)c4c3)c12 [Compound 810, (1s,4s)-4-((5-(1-(2,2-Difluoroethyl)-4-fluoro-1H-benzo[d][1,2,3]triazol-6-yl)-4-methoxypyrrolo[2,1-f][1,2,4]triazin-2-yl)amino)-1-methylcyclohexan-1-ol] |
| 8.40 | CCN1CC[C@@H](Nc2nc(OC)c3c(-c4ccc5nccnc5c4)ccn3n2)C(F)(F)C1 [Compound 1095, (R)—N-(1-Ethyl-3,3-difluoropiperidin-4-yl)-4-methoxy-5-(quinoxalin-6-yl)pyrrolo[2,1-f][1,2,4]triazin-2-amine] |
| 8.66 | [2H]C([2H])([2H])Oc1nc(N[C@@H]2CN(C(C)=O)C[C@@H]2F)nn2ccc(-c3ccc4nccnc4c3)c12 [Compound 353, 1-((3S,4R)-3-Fluoro-4-((4-(methoxy-d3)-5-(quinoxalin-6-yl)pyrrolo[2,1-f][1,2,4]triazin-2-yl)amino)pyrrolidin-1-yl)ethan-1-one] |
| 8.68 | COc1nc(N[C@@H]2CCN(C3COC3)CC2(F)F)nn2ccc(-c3ccc4ncccc4c3)c12 [Compound 321, (R)—N-(3,3-Difluoro-1-(oxetan-3-yl)piperidin-4-yl)-4-methoxy-5-(quinolin-6-yl)pyrrolo[2,1-f][1,2,4]triazin-2-amine] |
| 9.30 | COc1nc(N[C@H]2CC[C@](C)(O)CC2)nn2ccc(-c3ccc4ncn(CC(F)F)c4c3)c12 [Compound 1139, (1r,4r)-4-((5-(1-(2,2-Difluoroethyl)-1H-benzo[d]imidazol-6-yl)-4-methoxypyrrolo[2,1-f][1,2,4]triazin-2-yl)amino)-1-methylcyclohexan-1-ol] |
| 8.54 | COc1nc(N[C@@H]2CN(C3COC3)C[C@@H]2F)nn2ccc(-c3cnc4nccn4c3)c12 [Compound 266, N-((3R,4S)-4-Fluoro-1-(oxetan-3-yl)pyrrolidin-3-yl)-5-(imidazo[1,2-a]pyrimidin-6-yl)-4-methoxypyrrolo[2,1-f][1,2,4]triazin-2-amine] |
| 8.85 | COc1nc(N[C@H]2CCN(CCO)C[C@H]2F)nn2ccc(-c3ccc4nnn(CC(F)F)c4c3)c12 [Compound 756, 2-((3R,4S)-4-((5-(1-(2,2-Difluoroethyl)-1H-benzo[d][1,2,3]triazol-6-yl)-4-methoxypyrrolo[2,1-f][1,2,4]triazin-2-yl)amino)-3-fluoropiperidin-1-yl)ethan-1-ol] |
| 8.89 | COc1nc(NCC(C)(C)O)nn2ccc(-c3ccc4nnn(CC(F)F)c4c3)c12 [Compound 696, 1-((5-(1-(2,2-Difluoroethyl)-1H-benzo[d][1,2,3]triazol-6-yl)-4-methoxypyrrolo[2,1-f][1,2,4]triazin-2-yl)amino)-2-methylpropan-2-ol] |
| 8.11 | COc1nc(N[C@H]2CC[C@](C)(O)CC2)nn2ccc(-c3ccn4ncnc4c3)c12 [Compound 554, (1r,4r)-4-((5-([1,2,4]Triazolo[1,5-a]pyridin-7-yl)-4-methoxypyrrolo[2,1-f][1,2,4]triazin-2-yl)amino)-1-methylcyclohexan-1-ol] |
| 8.41 | CCN1CC[C@@H](Nc2nc(OC)c3c(-c4ccc5nnn(C)c5c4)ccn3n2)C(F)(F)C1 [Compound 627, (R)—N-(1-Ethyl-3,3-difluoropiperidin-4-yl)-4-methoxy-5-(1-methyl-1H-benzo[d][1,2,3]triazol-6-yl)pyrrolo[2,1-f][1,2,4]triazin-2-amine] |
| 8.66 | COc1nc(N[C@@H]2CCN(C)CC2(F)F)nn2ccc(-c3ccc4ncccc4c3)c12 [Compound 319, (R)—N-(3,3-Difluoro-1-methylpiperidin-4-yl)-4-methoxy-5-(quinolin-6-yl)pyrrolo[2,1-f][1,2,4]triazin-2-amine] |
